Assay results from ChEMBL document CHEMBL3085759, “Structure-activity relationship (SAR) and preliminary mode of action studies of 3-substituted benzylthioquinolinium iodide as anti-opportunistic infection agents” (Eur J Med Chem, 2013).
Activity calls are given as the source filed them. No cut-off for these calls is given here.

Legend:
Candida albicans = experiment: Antimicrobial activity against Candida albicans ATCC 90028 by Alamar blue method; assay type: functional, organism-based
Staphylococcus aureus [1] = experiment: Antimicrobial activity against methicillin-resistant Staphylococcus aureus ATCC 33591 by Alamar blue method; assay type: functional, organism-based
Staphylococcus aureus [2] = experiment: Antimicrobial activity against Staphylococcus aureus ATCC 29213 by Alamar blue method; assay type: functional, organism-based
Cryptococcus neoformans = experiment: Antimicrobial activity against Cryptococcus neoformans ATCC 90113 by Alamar blue method; assay type: functional, organism-based
Aspergillus fumigatus = experiment: Antimicrobial activity against Aspergillus fumigatus ATCC 204305 by Alamar blue method; assay type: functional, organism-based
Nakaseomyces glabratus = experiment: Antimicrobial activity against Candida glabrata by Alamar blue method; assay type: functional, organism-based
[3] = test system: Mycobacterium intracellulare; experiment: Antimicrobial activity against Mycobacterium intracellulare ATCC 23068 by Alamar blue method; assay type: functional, organism-based
Pichia kudriavzevii = experiment: Antimicrobial activity against Candida krusei ATCC 6258 by Alamar blue method; assay type: functional, organism-based
Vero = experiment: Cytotoxicity against african green monkey Vero cells at 10 ug/ml after 48 hrs by Neutral Red dye assay; assay type: cell-based; conditions: chlorocebus sabaeus
[4] = Staphylococcus aureus, ATCC 29213
[5] = Staphylococcus aureus, ATCC 29213, read-out: IC50

| Compound | IC50 (Candida albicans) [µg/mL] | MFC (Candida albicans) [µg/mL] | MIC (Candida albicans) [µg/mL] | IC50 (Staphylococcus aureus [1]) [µg/mL] | MBC (Staphylococcus aureus [1]) [µg/mL] | MIC (Staphylococcus aureus [1]) [µg/mL] | MBC (Staphylococcus aureus [2]; [4]) [µg/mL] | MIC (Cryptococcus neoformans) [µg/mL] | IC50 (Aspergillus fumigatus) [µg/mL] | MIC (Aspergillus fumigatus) [µg/mL] | IC50 (Nakaseomyces glabratus) [µg/mL] | MFC (Nakaseomyces glabratus) [µg/mL] | MIC (Nakaseomyces glabratus) [µg/mL] | IC50 [3] [µg/mL] | MBC [3] [µg/mL] | MIC [3] [µg/mL] | IC50 (Pichia kudriavzevii) [µg/mL] | MFC (Pichia kudriavzevii) [µg/mL] | MIC (Pichia kudriavzevii) [µg/mL] | Activity (Vero) | other results |
| --- | --- | --- | --- | --- | --- | --- | --- | --- | --- | --- | --- | --- | --- | --- | --- | --- | --- | --- | --- | --- | --- |
| Clc1ccccc1CSc1cc2ccccc2[n+](CCCCCC2CCCCC2)c1.[I-] | 5.6 | 20 | 10 | 0.74 | 5 | 1.3 | 5 | 2.5 | 17 | 20 | 6 | 10 | 10 | 13 | 20 | 20 | 0.34 | 2.5 | 2.5 | Non-toxic | MIC (Staphylococcus aureus [2]; [4]): 1.3 µg/mL; IC50 (Staphylococcus aureus [2]; [5]): 0.77 µg/mL; IC50 (Cryptococcus neoformans): 1.5 µg/mL; MFC (Cryptococcus neoformans): 5 µg/mL; MFC (Aspergillus fumigatus): 20 µg/mL |
| Brc1cccc(CSc2cc3ccccc3[n+](CCCCCC3CCCCC3)c2)c1.[I-] | 2.6 | 5 | 5 | 0.21 | 0.63 | 0.31 | 0.63 | 0.63 | 4.8 | 10 | 1.4 | 2.5 | 2.5 | 3.2 | 5 | 5 | 0.4 | 0.63 | 0.63 | Non-toxic | MIC (Staphylococcus aureus [2]; [4]): 0.63 µg/mL; IC50 (Staphylococcus aureus [2]; [5]): 0.42 µg/mL; IC50 (Cryptococcus neoformans): 0.56 µg/mL; MFC (Cryptococcus neoformans): 1.3 µg/mL; MFC (Aspergillus fumigatus): 10 µg/mL |
| Brc1ccccc1CSc1cc2ccccc2[n+](CCCCCC2CCCCC2)c1.[I-] | 4 | 10 | 10 | 0.41 | 1.3 | 0.63 | 1.3 | 1.3 | 9.6 | 20 | 3.4 | 10 | 10 | 3.5 | 5 | 5 | 0.49 | 1.3 | 1.3 | Non-toxic | MIC (Staphylococcus aureus [2]; [4]): 0.63 µg/mL; IC50 (Staphylococcus aureus [2]; [5]): 0.42 µg/mL; MFC (Cryptococcus neoformans): 2.5 µg/mL; MFC (Aspergillus fumigatus): 20 µg/mL |
| Oc1ccc(CSc2cc3ccccc3[n+](CCCCCC3CCCCC3)c2)cc1.[I-] | 11 | 20 | 20 | 0.34 | 5 | 0.63 | 2.5 | 10 | 16 | 20 | 7.9 | 20 | 20 | 2.2 | 5 | 2.5 | 0.56 | 1.3 | 1.3 | Non-toxic | MIC (Staphylococcus aureus [2]; [4]): 2.5 µg/mL; IC50 (Staphylococcus aureus [2]; [5]): 0.26 µg/mL; MFC (Cryptococcus neoformans): 10 µg/mL; MFC (Aspergillus fumigatus): 20 µg/mL |
| Brc1ccc(CSc2cc3ccccc3[n+](CCCCCC3CCCCC3)c2)cc1.[I-] | 0.5 | 2.5 | 1.3 | 0.4 | 1.3 | 0.63 | 1.3 | 0.63 | 2.4 | 5 | 1.6 | 5 | 5 | 6.1 | 10 | 10 | 0.49 | 0.63 | 0.63 | Non-toxic | MIC (Staphylococcus aureus [2]; [4]): 0.63 µg/mL; IC50 (Staphylococcus aureus [2]; [5]): 0.4 µg/mL; IC50 (Cryptococcus neoformans): 0.22 µg/mL; MFC (Cryptococcus neoformans): 0.63 µg/mL; MFC (Aspergillus fumigatus): 5 µg/mL |
| Cc1cc(C)c(CSc2cc3ccccc3[n+](CCCCCC3CCCCC3)c2)c(C)c1.[I-] | > 20 | > 20 | > 20 | 0.23 | 0.63 | 0.63 | 1.3 | 0.63 | 2.3 | 5 | 1.7 | 5 | 5 | 2.9 | 5 | 5 | 0.44 | 0.63 | 0.63 | Non-toxic | MIC (Staphylococcus aureus [2]; [4]): 0.63 µg/mL; IC50 (Staphylococcus aureus [2]; [5]): 0.34 µg/mL; IC50 (Cryptococcus neoformans): 0.32 µg/mL; MFC (Cryptococcus neoformans): 0.63 µg/mL; MFC (Aspergillus fumigatus): 5 µg/mL |
| Cc1ccccc1CSc1cc2ccccc2[n+](CCCCCC2CCCCC2)c1.[I-] | 1.4 |  | 2.5 | 0.73 | 2.5 | 1.3 | 2.5 | 0.63 | 4.1 | 10 | 2.8 | 5 | 5 | 6.7 | 10 | 10 | 0.84 | 2.5 | 2.5 | Non-toxic | MIC (Staphylococcus aureus [2]; [4]): 0.63 µg/mL; IC50 (Staphylococcus aureus [2]; [5]): 0.4 µg/mL; IC50 (Cryptococcus neoformans): 0.39 µg/mL |
| Clc1cc(Cl)cc(CSc2cc3ccccc3[n+](CCCCCC3CCCCC3)c2)c1.[I-] | 2.8 | 5 | 5 | 1.3 | 10 | 2.5 |  | 1.3 | > 20 | > 20 | > 20 | > 20 | > 20 | 3.1 | 5 | 5 | 17 | > 20 | > 20 | Non-toxic | IC50 (Staphylococcus aureus [2]): Not Active; MBC (Staphylococcus aureus [2]): inactive; MIC (Staphylococcus aureus [2]): inactive; IC50 (Cryptococcus neoformans): 0.63 µg/mL; MFC (Cryptococcus neoformans): 1.3 µg/mL; MFC (Aspergillus fumigatus): > 20 µg/mL |
| Clc1ccc(CSc2cc3ccccc3[n+](CCCCCC3CCCCC3)c2)cc1Cl.[I-] | 1.1 | 2.5 | 2.5 | 0.18 | 1.3 | 1.3 | 2.5 | 0.63 | 2.8 | 5 | 3 | 5 | 5 | 4.5 | 10 | 5 | 0.3 | 1.3 | 1.3 | Non-toxic | MIC (Staphylococcus aureus [2]; [4]): 2.5 µg/mL; IC50 (Staphylococcus aureus [2]; [5]): 0.5 µg/mL; IC50 (Cryptococcus neoformans): 0.45 µg/mL; MFC (Cryptococcus neoformans): 0.63 µg/mL; MFC (Aspergillus fumigatus): 5 µg/mL |
